In US11203602B2, “Thioester prodrugs of macrocycles as inhibitors of histone deacetylases” (OnKure, Inc., priority 2016, dated 2021):
≈ marks a conversion by molar mass, not a printed value. Counter-ions that a name gives are not always drawn.

Columns and labels:
[1] = Aqueous solubility at two pH levels; type: physicochemical; conditions: aqueous solution
Rat PK (p.o.) = type: in vivo; conditions: plasma, po
HCT 116 cells = conditions: Zeng et al. 2010; cited from earlier work
HLF cells = conditions: HLF normal cell line; Zeng et al. 2010; cited from earlier work
melanoma cell lines = conditions: series of melanoma cell lines; Bowers et al. 2008; cited from earlier work
MDA-MB231 = conditions: Taori et al. 2008; cited from earlier work
HEK293 = HEK293 normal cell line; Zeng et al. 2010; cited from earlier work
HDAC = conditions: cells treated with compound; Ying et al. 2008a; read-out: IC50 HDAC inhibition; cited from earlier work
[2] = test system: HDAC proteins from class I and class II; conditions: purified full length HDAC proteins; Bowers et al. 2008; cited from earlier work
HCT116 cells = conditions: Ying et al. 2008b; cited from earlier work
[3] = 10 mg/kg, Vehicle (0.02N HCl sol.)
[4] = 15 mg/kg, Vehicle (0.1N citrate buffer)

SMILES	solubility ([1]; pH 3, aqueous buffer)	solubility ([1]; pH 6, aqueous buffer)	AUC(0-inf) (Rat PK (p.o.); [3])	Cmax (Rat PK (p.o.); [3])	Tmax (Rat PK (p.o.); [3])	half-life (Rat PK (p.o.); [3])	further results
CC(C)[C@@H]1NC(=O)C(C)(C)NC(=O)c2csc(n2)CNC(=O)C[C@@H](/C=C/CCSC(=O)CN(C)C)OC1=O [Example 6, S-((E)-4-((7S,10S)-7-isopropyl-4,4-dimethyl-2,5,8,12-tetraoxo-9-oxa-16-thia-3,6,13,18-tetraazabicyclo[13.2.1]octadeca-1(17),15(18)-dien-10-yl)but-3-en-1-yl) 2-(dimethylamino)ethanethioate]	2.45 mg/mL (≈ 4.32 mM)	2.32 mg/mL (≈ 4.09 mM)	272 ng·h/mL	107 ng/mL	0.83 h	5.86 h	–
CCCCCCCC(=O)SCC/C=C/[C@@H]1CC(=O)NCc2nc(cs2)C2=N[C@@](C)(CS2)C(=O)N[C@@H](C(C)C)C(=O)O1 [largazole, Largazole]	–	–	–	–	–	–	GI50 (HCT 116 cells): 80 nM; GI50 (HLF cells): 980 nM; IC50 (melanoma cell lines): 45 to 315 nM; GI50 (MDA-MB231): 7.7 nM; GI50 (HEK293): 1360 nM; IC50 (HDAC): 51 nM; HDAC inhibition in vitro compared to the thiol [2]: much weaker HDAC inhibitor; preference for HDACs 1, 2, and 3 over HDAC6 [2]: pronounced preference; GI50 (HCT116 cells): 44 nM
CC(C)[C@@H]1NC(=O)[C@]2(C)CSC(=N2)c2csc(n2)CNC(=O)C[C@@H](/C=C/CCS)OC1=O [largazole thiol]	–	–	–	–	–	–	IC50 (melanoma cell lines): 380 to 2600 nM; IC50 (HDAC): 209 nM; GI50 (HCT116 cells): 38 nM
CC(C)[C@@H]1NC(=O)C(C)(C)NC(=O)c2csc(n2)CNC(=O)C[C@@H](/C=C/CCSC(=O)c2cccnc2)OC1=O [Example 7, S-((E)-4-((7S,10S,Z)-7-isopropyl-4,4-dimethyl-2,5,8,12-tetraoxo-9-oxa-3,6,13-triaza-1(4,2)-thiazolacyclotetradecaphane-10-yl)but-3-en-1-yl) pyridine-3-carbothioate]	–	–	240 ng·h/mL	150 ng/mL	0.33 h	6.88 h	–

The next lines start with results.

solubility ([1]; pH 3, aqueous buffer)	solubility ([1]; pH 6, aqueous buffer)	AUC(0-inf) (Rat PK (p.o.); [3])	Cmax (Rat PK (p.o.); [3])	Tmax (Rat PK (p.o.); [3])	half-life (Rat PK (p.o.); [3])	SMILES	further results
45.5 mg/mL	41.8 mg/mL	–	–	–	–	CC(C)[C@@H]1NC(=O)C(C)(C)NC(=O)c2csc(n2)CNC(=O)C[C@@H](/C=C/CCSC(=O)[C@@H](C)N)OC1=O [Example 5, (R)—S-((E)-4-((7S,10S)-7-isopropyl-4,4-dimethyl-2,5,8,12-tetraoxo-9-oxa-16-thia-3,6,13,18-tetraazabicyclo[13.2.1]octadeca-1(17),15(18)-dien-10-yl)but-3-en-1-yl) 2-aminopropanethioate Oxalate]	–
12.3 mg/mL	18 mg/mL	267 ng·h/mL	123 ng/mL	0.48 h	8.23 h	CC(C)[C@H](N)C(=O)SCC/C=C/[C@@H]1CC(=O)NCc2nc(cs2)C(=O)NC(C)(C)C(=O)N[C@@H](C(C)C)C(=O)O1.Cl [Example 2, (S)—S-((E)-4-((7S,10S)-7-isopropyl-4,4-dimethyl-2,5,8,12-tetraoxo-9-oxa-16-thia-3,6,13,18-tetraazabicyclo[13.2.1]octadeca-1(17),15(18)-dien-10-yl)but-3-en-1-yl) 2-amino-3-methylbutanethioate Hydrochloride]	–
8.67 mg/mL	10.5 mg/mL	257 ng·h/mL	86 ng/mL	0.42 h	8.53 h	CC(C)[C@@H]1NC(=O)C(C)(C)NC(=O)c2csc(n2)CNC(=O)C[C@@H](/C=C/CCSC(=O)[C@H](N)C(C)C)OC1=O.Cl [Example 1, (R)—S-((E)-4-((7S,10S)-7-isopropyl-4,4-dimethyl-2,5,8,12-tetraoxo-9-oxa-16-thia-3,6,13,18-tetraazabicyclo[13.2.1]octadeca-1(17),15(18)-dien-10-yl)but-3-en-1-yl) 2-amino-3-methylbutanethioate Hydrochloride]	–
7.5 mg/mL	–	–	–	–	–	CC(C)[C@H](N)C(=O)SCC/C=C/[C@@H]1CC(=O)NCc2nc(cs2)C(=O)NC(C)(C)C(=O)N[C@@H](C(C)C)C(=O)O1.O=S(=O)(O)c1ccccc1 [Example 3, (S)—S-((E)-4-((7S,10S)-7-isopropyl-4,4-dimethyl-2,5,8,12-tetraoxo-9-oxa-16-thia-3,6,13,18-tetraazabicyclo[13.2.1]octadeca-1(17),15(18)-dien-10-yl)but-3-en-1-yl) 2-amino-3-methylbutanethioate Benzenesulfonate]	AUC(0-inf) (Rat PK (p.o.); [4]): 583 ng·h/mL; Cmax (Rat PK (p.o.); [4]): 253 ng/mL; Tmax (Rat PK (p.o.); [4]): 0.6 h; half-life (Rat PK (p.o.); [4]): 12.4 h
15.4 mg/mL	25.2 mg/mL	176 ng·h/mL	51 ng/mL	1 h	6.09 h	CC(C)[C@@H]1NC(=O)C(C)(C)NC(=O)c2csc(n2)CNC(=O)C[C@@H](/C=C/CCSC(=O)[C@H](C)N)OC1=O [Example 4, (S)—S-((E)-4-((7S,10S)-7-isopropyl-4,4-dimethyl-2,5,8,12-tetraoxo-9-oxa-16-thia-3,6,13,18-tetraazabicyclo[13.2.1]octadeca-1(17),15(18)-dien-10-yl)but-3-en-1-yl) 2-aminopropanethioate Oxalate]	–
